In ChEMBL document CHEMBL1128858, “Z-()-1-azabicyclo[2.2.1]heptan-3-one, O-(3-aryl-2-propynyl) oximes as potential m1-subtype selective muscarinic agonists” (Bioorg Med Chem Lett, 1995):

What was measured:
[1] = target: T1, Muscarinic acetylcholine receptor (Rattus norvegicus) (UniProt P08482+P08483+P08485+P08911+P10980); assay: Ratio of QNB/CMD binding affinities to predict agonistic efficacy at muscarinic receptor; format: protein assay
[2] = target: Muscarinic acetylcholine receptor; assay: Binding affinity towards muscarinic receptor using [3H]cis-methyldioxolane (CMD) to label agonist sites in membrane preparations from rat neocortex; format: tissue-based
[3] = target: Muscarinic acetylcholine receptor; assay: Binding affinity towards muscarinic receptor using [3H]quinuclidinyl benzilate (QNB) to label antagonist sites in membrane preparations from rat neocortex
[4] = target: T1, Muscarinic acetylcholine receptor (Rattus norvegicus); assay: Binding affinity towards muscarinic receptor using [3H]quinuclidinyl benzilate (QNB) to label antagonist sites in membrane preparations from rat neocortex at 100 nM
[5] = target: T1, Muscarinic acetylcholine receptor (Rattus norvegicus); assay: Binding affinity towards muscarinic receptor using [3H]cis-methyldioxolane (CMD) to label agonist sites in membrane preparations from rat neocortex at 100 nM; format: tissue-based
[6] = target: T2, Muscarinic acetylcholine receptor M2 (Homo sapiens) (UniProt P08172); assay: Inhibitory activity against forskolin-stimulated accumulation of cyclic adenosine monophosphate (cAMP) in CHO cells expressing human m2 receptor (max. concentration. 1 mM); format: functional, cell-based
T2 sequence (whole entry): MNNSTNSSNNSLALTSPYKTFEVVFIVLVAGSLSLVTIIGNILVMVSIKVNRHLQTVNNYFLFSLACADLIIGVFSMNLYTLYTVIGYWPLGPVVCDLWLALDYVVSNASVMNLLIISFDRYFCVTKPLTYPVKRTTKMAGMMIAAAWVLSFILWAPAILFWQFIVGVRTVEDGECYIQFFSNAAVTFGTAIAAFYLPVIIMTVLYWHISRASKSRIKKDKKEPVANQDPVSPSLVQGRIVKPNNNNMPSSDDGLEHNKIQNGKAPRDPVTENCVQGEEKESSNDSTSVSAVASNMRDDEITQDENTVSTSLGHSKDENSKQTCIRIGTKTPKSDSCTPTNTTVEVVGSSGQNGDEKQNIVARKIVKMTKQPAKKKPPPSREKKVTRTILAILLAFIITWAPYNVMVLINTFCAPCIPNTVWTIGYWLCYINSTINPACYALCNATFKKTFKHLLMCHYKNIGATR

[7] = target: T3, Muscarinic acetylcholine receptor M4 (Homo sapiens) (UniProt P08173); assay: Inhibitory activity against forskolin-stimulated accumulation of cyclic adenosine monophosphate (cAMP) in CHO cells expressing human m4 receptor (max. concentration. 1 mM); format: functional, cell-based
T3 sequence (whole entry): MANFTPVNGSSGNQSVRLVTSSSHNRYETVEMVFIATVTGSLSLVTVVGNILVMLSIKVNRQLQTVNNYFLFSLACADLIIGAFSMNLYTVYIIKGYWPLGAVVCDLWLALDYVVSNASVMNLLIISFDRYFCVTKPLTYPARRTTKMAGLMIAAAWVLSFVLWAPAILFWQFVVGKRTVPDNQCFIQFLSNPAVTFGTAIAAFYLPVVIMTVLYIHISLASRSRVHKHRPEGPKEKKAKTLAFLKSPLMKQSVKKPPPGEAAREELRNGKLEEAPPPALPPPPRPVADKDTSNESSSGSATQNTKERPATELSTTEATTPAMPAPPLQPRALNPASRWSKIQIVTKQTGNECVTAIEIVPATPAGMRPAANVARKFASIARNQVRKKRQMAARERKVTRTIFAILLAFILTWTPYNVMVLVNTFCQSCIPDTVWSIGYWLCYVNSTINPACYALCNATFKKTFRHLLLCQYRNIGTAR

[8] = target: T4, Muscarinic acetylcholine receptor M5 (Homo sapiens) (UniProt P08912); assay: Ability to stimulate inositol phosphate(PI) accumulation in CHO cells expressing human m5 receptor (max. concentration. 100 uM); format: functional, cell-based
T4 sequence (whole entry): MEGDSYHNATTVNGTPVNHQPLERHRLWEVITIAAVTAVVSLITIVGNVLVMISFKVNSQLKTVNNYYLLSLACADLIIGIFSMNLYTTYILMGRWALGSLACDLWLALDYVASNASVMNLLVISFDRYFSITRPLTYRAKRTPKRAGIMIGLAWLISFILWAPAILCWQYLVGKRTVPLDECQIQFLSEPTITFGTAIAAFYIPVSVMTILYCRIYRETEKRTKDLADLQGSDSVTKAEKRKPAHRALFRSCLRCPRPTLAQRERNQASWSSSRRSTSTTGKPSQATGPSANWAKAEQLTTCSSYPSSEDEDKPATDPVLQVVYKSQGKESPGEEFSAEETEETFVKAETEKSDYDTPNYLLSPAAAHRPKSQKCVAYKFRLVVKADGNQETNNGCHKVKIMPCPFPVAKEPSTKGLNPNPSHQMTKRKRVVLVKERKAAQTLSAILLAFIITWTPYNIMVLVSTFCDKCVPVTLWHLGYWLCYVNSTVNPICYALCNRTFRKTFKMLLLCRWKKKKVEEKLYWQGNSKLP

[9] = target: T1, Muscarinic acetylcholine receptor (Rattus norvegicus); assay: Binding affinity towards muscarinic receptor using [3H]cis-methyldioxolane (CMD) to label agonist sites in membrane preparations from rat neocortex at 1 uM; format: tissue-based

COc1ccccc1C#CCO/N=C1\CN2CCC1C2 (stereo not given)
Ratio [1]: 81 | IC50 [2]: 219 nM | IC50 [3]: 17.658 µM

Cc1ccccc1C#CCO/N=C1\CN2CCC1C2 (stereo not given)
inhibition [4]: 56% | inhibition [5]: 82%

Cc1ccc(C#CCO/N=C2\CN3CCC2C3)cc1 (stereo not given)
Ratio [1]: 125 | IC50 [2]: 89 nM | IC50 [3]: 11.089 µM

Fc1cccc(C#CCO/N=C2\CN3CCC2C3)c1 (stereo not given)
Ratio [1]: 132 | IC50 [2]: 37 nM | IC50 [3]: 4.925 µM

Fc1ccccc1C#CCO/N=C1\CN2CCC1C2 (stereo not given)
Ratio [1]: 159 | IC50 [2]: 28 nM | IC50 [3]: 4.443 µM

COc1ccc(C#CCO/N=C2\CN3CCC2C3)cc1OC (stereo not given)
Ratio [1]: 303 | IC50 [2]: 140 nM | IC50 [3]: 42.449 µM

C[N+](C)(C)CCOC(N)=O
inhibition [6]: 58% | inhibition [7]: 60% | PI [8]: 100%

Cc1cccc(C#CCO/N=C2\CN3CCC2C3)c1 (stereo not given)
Ratio [1]: 186 | IC50 [2]: 28 nM | IC50 [3]: 5.195 µM

C(#Cc1ccc2c(c1)OCO2)CO/N=C1\CN2CCC1C2 (stereo not given)
Ratio [1]: 110 | IC50 [2]: 23 nM | IC50 [3]: 2.547 µM

C(#Cc1ccc2c(c1)OCCO2)CO/N=C1\CN2CCC1C2 (stereo not given)
inhibition [9]: 39% | inhibition [4]: 0%

FC(F)(F)c1cc(C#CCO/N=C2\CN3CCC2C3)cc(C(F)(F)F)c1 (stereo not given)
inhibition [9]: 55% | inhibition [4]: 18%

Fc1ccc(C#CCO/N=C2\CN3CCC2C3)cc1 (stereo not given)
Ratio [1]: 204 | IC50 [2]: 30 nM | IC50 [3]: 6.092 µM

Clc1cc(Cl)cc(C#CCO/N=C2\CN3CCC2C3)c1 (stereo not given)
inhibition [9]: 53% | inhibition [4]: 18%

Clc1ccc(C#CCO/N=C2\CN3CCC2C3)cc1 (stereo not given)
Ratio [1]: 119 | IC50 [2]: 53 nM | IC50 [3]: 6.3 µM

Clc1ccccc1C#CCO/N=C1\CN2CCC1C2 (stereo not given)
Ratio [1]: 107 | IC50 [2]: 12 nM | IC50 [3]: 1.305 µM

COc1ccc(C#CCO/N=C2\CN3CCC2C3)cc1 (stereo not given)
Ratio [1]: 119 | IC50 [2]: 110 nM | IC50 [3]: 13.101 µM

COc1cccc(C#CCO/N=C2\CN3CCC2C3)c1 (stereo not given)
inhibition [6]: 0% | Ratio [1]: 250 | inhibition [7]: 0% | IC50 [2]: 28 nM | IC50 [3]: 6.927 µM | PI [8]: 11%

C(#Cc1ccccc1)CO/N=C1\CN2CCC1C2 (stereo not given)
inhibition [6]: 0% | Ratio [1]: 109 | inhibition [7]: 0% | IC50 [2]: 46 nM | IC50 [3]: 5.012 µM | PI [8]: 1%

FC(F)(F)c1cccc(C#CCO/N=C2\CN3CCC2C3)c1 (stereo not given)
Ratio [1]: 134 | IC50 [2]: 32 nM | IC50 [3]: 4.237 µM

Clc1cccc(C#CCO/N=C2\CN3CCC2C3)c1 (stereo not given)
Ratio [1]: 202 | IC50 [2]: 19 nM | IC50 [3]: 3.882 µM

O=[N+]([O-])c1cccc(C#CCO/N=C2\CN3CCC2C3)c1 (stereo not given)
Ratio [1]: 226 | IC50 [2]: 28 nM | IC50 [3]: 6.399 µM
